Results on one compound are retold here after US7119213B2, “Pharmacologically active isolated or purified dauer pheromone compound for controlling aging and stress and method for isolating and characterizing the same” (priority 2002, dated 2006).

Molecules are shown by their SMILES.

The subject of the test is C. elegans. Nature of the test: Dauer inducing activity assay (dauer test on worms grown in S medium). The format is in vivo. The method, then: To examine whether this ethanol extract (A) can induce dauer larva phase, dauer test is performed on the worms that had been grown in the S medium.
Briefly, the dried A was dissolved in double distilled water and extracted with the equal volume of ethyl acetate. This extraction procedure was repeated 5 times.
After confirming the dauer inducing activity of B, extracts obtained by the above-described process are loaded onto a silica-gel absorption column which has been equilibrated with hexane: ethyl acetate: methanol=7:7:1. An active form of dauer pheromone (C) that were adsorbed onto the column was eluted with methanol.
To further purify C, HPLC separation is carried out using amine column. Briefly, the fraction C is dissolved in methanol and diluted with double distilled water (MeOH: ddH2O=1:1). This solution containing C is loaded onto the amine column, which is equilibrated with isopropanol solution (isopropanol: water=1:1). A dauer pheromone fraction bound to the column (Fraction D) was eluted with a gradient solution of the same solvent.
Table 5 outlines the result of dauer inducing assay using the active fractions D from the amine column chromatography. Finally, a dauer pheromone (E) is completely isolated and purified refined by size exclusion column chromatography using methanol as an eluent solution.
The pure dauer pheromone characterized by the above described procedures is defined as the structural formula I, and its chemical formula is 6-(3,5-dihydroxy-6-methyl-tetrahydro-pyran-2-yloxy)-heptanoic acid or its sodium salt.

With `CC(CCCCC(=O)O)OC1OC(C)C(O)CC1O` (stereo not drawn) [W251 column fraction (purified form), 6-(3,5-dihydroxy-6-methyl-tetrahydro-pyran-2-yloxy)-heptanoic acid], the “Formation of dauer larva stage (%)” value (dauer test on C. elegans) amounted to 100%. For the same compound, under “number of worms in dauer larva stage in the dauer test”, the “Population in dauer larva stage” value was found to be 62. Further, the “Induction of dauer phase (in words)” value (pure pheromone added onto the media) was “markedly induce the worm into dauer phase”.
